Measured values as given in US20040044006A1, “Methods of use of quinolone compounds against pneumococcal and haemophilus bacteria” (priority 1999, published 2004).
Converted amounts (≈) assume the structure as drawn. Like-named read-outs stand apart in the source and are kept apart here.

Key:
[1] = test system: pneumococci (5 quinolone susceptible and 1 resistant strains); test: Post-antibiotic effect (PAE) testing; type: cell-based, Streptococcus pneumoniae
Method: The post-antibiotic effect (PAE) (Craig, et al., V. Lorian (ed.) Antibiotics in Laboratory Medicine, Williams and Wilkins, Baltimore, pages 296-399, 1996) was determined by the viable plate count method, using Mueller-Hinton broth (MHB) supplemented with 5% lysed horse blood when testing pneumococci. […] Additionally, the one quinolone resistant strain was exposed at quinolone concentrations 5×MIC. Tubes containing 5 ml broth with antibiotic were inoculated with approximately 5×10^6 cfu/ml. Growth controls with inoculum but no antibiotic were included with each experiment. Tubes were placed in a shaking water bath at 35° C. for 1 h. At the end of the exposure period, cultures were diluted 1:1000 to remove antibiotic.
Viability counts were determined before exposure and immediately after dilution (0 h), and then every 2 h until tube turbidity reached a #1 McFarland standard. Inocula were prepared by suspending growth from an overnight blood agar plate in broth. The broth was incubated at 35° C. for 2-4 h in a shaking water bath until turbidity matched a #1 McFarland standard, and checked for viability by plate counts (Spangler, et al., Antimicrob. Agents Chemother. 41:2173-9176, 1997; Spangler, et al., Antimicrob. Agents Chemother. 42:1253-1255, 1998).
The PAE was defined as PAE=T-C; T=time required for viability counts of an antibiotic-exposed culture to increase by 1 log10 above counts immediately after dilution; C=corresponding time for growth control. For each experiment, viability counts (log10 cfu/ml) were plotted against time, and results expressed as the mean of two separate assays±S D (Craig, et al., V. Lorian (ed), Antibiotics in Laboratory Medicine, Williams and Wilkins, Baltimore, pages 296-329, 1996).

[2] = test system: quinolone-resistant Haemophilus influenzae strains; test: Microdilution MIC determination in HTM for quinolone-resistant Haemophilus influenzae strains; type: cell-based
Method: Inocula were prepared from chocolate agar plates incubated for a full 24 hours by the direct colony suspension method as follows: In a tube of Mueller-Hinton broth (Difco), an organism suspension was made to a density of a 0.5 McFarland standard (1×10^8 CFU/ml). The latter inoculum was diluted in sterile saline such that final organisms suspensions in trays yielded colony counts of 3-8×10^5 CFU/ml. Frozen microdilution trays were obtained from MicroMedia Systems, Inc. (Cleveland, Ohio, USA). Each tray contained all antimicrobials prepared in freshly made HTM. Wells were inoculated with 100 μl suspensions and incubated in ambient air at 35° C. for 20-24 hours. The lowest drug concentration showing no growth was read as the MIC. Standard quality control strains, including H. influenzae ATCC 49766, H. influenzae ATCC 49247, Staphylococcus aureus ATCC 29213 and Escherichia coli ATCC 25922 were included with each run.

[3] = test system: pneumococci with ciprofloxacin MICs ≧8 μg/ml; test: Quinolone agar dilution MICs of 28 ciprofloxacin resistant pneumococcal strains, correlated with QRDR mutations; type: cell-based, Streptococcus pneumoniae
Method: Additionally these strains were tested for mutations in parC, gyrA, parE, and gyrB (Pan, et al. Antimicrob. Agents Chemother. 40:2321-2326, 1996) and for efflux mechanism (Brenwald, et ail., Antimicrob. Agents Chemother. 42:2032-2035, 1998).
Gemifloxacin susceptibility powder was obtained from SmithKline Beecham Laboratories, Harlow, UK. Agar dilution methodology was performed on 28 strains as described previously (M. R. Jacobs, Clin. Infect. Dis. 15: 119-127, […] and M. R. Jacobs, Rev. Med. Microbiol. 6:77-93, 1995), using Mueller-Hinton altar (BBL Microbiology Systems, Cockeysville, Md.) supplemented with 5% sheep blood. Standard quality control strains, including Streptococcus pneumoniae ATCC 49619, were included in each run of agar dilution MICs.

pneumococcal strains = test: Microbroth dilution MICs of strains tested by time-kill and PAE; type: cell-based; settings: Streptococcus pneumoniae
Method in brief: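 S. pneumoniae ATCC 49619 served as control in each run. For the 12 time-kill and 6 PAE strains, MICs came from NCCLS microbroth dilution using cation-adjusted Mueller-Hinton broth plus 5% lysed defibrinated horse blood.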

[4] = 9 quinolone-resistant Haemophilus influenzae strains

CO/N=C1\CN(c2nc3c(cc2F)c(=O)c(C(=O)O)cn3C2CC2)CC1CN (racemic) [Gemifloxacin, (R,S)-7-(3-aminomethyl-4-methoxyiminopyrrolidin-1-yl)-1-cyclopropyl-6-fluoro-4-oxo-1,4-dihydro-1,8-naphthyridine-3-carboxylic acid]
PAE ([1]; 5×MIC, quinolone resistant strain): 0.9 h | PAE ([1]; 10×MIC for 1 h, range over 5 quinolone susceptible strains): 0.4 to 1.6 h | MIC50 [2, 4]: 0.25 µg/mL (≈ 0.642 µM) | MIC Range [2, 4]: 0.03 to 1.0 µg/mL | MIC Range ([2]; 9 quinolone-resistant Haemophilus influenzae strains, listed as gemifloxacin): ≤ 1.0 µg/mL | MIC ([2]; 9 quinolone-resistant Haemophilus influenzae strains, read-out: highest MIC): 1 µg/mL (≈ 2.57 µM) | MIC ([2]; Haemophilus influenzae, read-out: MICs, strain 1, GyrA S84→L, ParC S133→A N138→S, GyrB None, ParE None): 0.03 µg/mL (≈ 0.077 µM) | MIC ([2]; Haemophilus influenzae, read-out: MICs, strain 2, GyrA S84→F, ParC None, GyrB None, ParE S458→L): 0.125 µg/mL (≈ 0.321 µM) | MIC ([2]; Haemophilus influenzae, read-out: MICs, strain 3, GyrA S84→L, ParC S84→I, GyrB None, ParE None): 0.125 µg/mL (≈ 0.321 µM) | MIC ([2]; Haemophilus influenzae, read-out: MICs, strain 4, GyrA S84→F D88→N, ParC D83→N, GyrB None, ParE T459→S): 0.25 µg/mL (≈ 0.642 µM) | MIC ([2]; Haemophilus influenzae, read-out: MICs, strain 5, GyrA S84→Y, ParC E88→K, GyrB Q468→R, ParE G405→S): 0.25 µg/mL (≈ 0.642 µM) | MIC ([2]; Haemophilus influenzae, read-out: MICs, strain 6, GyrA S84→L A117→E, ParC S84→R, GyrB None, ParE D420→N): 0.5 µg/mL (≈ 1.28 µM) | MIC ([2]; Haemophilus influenzae, read-out: MICs, strain 7, GyrA S84→L A117→E, ParC S84→R, GyrB None, ParE D420→N): 0.5 µg/mL (≈ 1.28 µM) | MIC ([2]; Haemophilus influenzae, read-out: MICs, strain 8, GyrA S84→L A117→E, ParC S84→R, GyrB None, ParE D420→N): 0.5 µg/mL (≈ 1.28 µM) | MIC50 ([3]; Streptococcus pneumoniae): 0.25 µg/mL (≈ 0.642 µM) | MIC90 ([3]; Streptococcus pneumoniae): 0.5 µg/mL (≈ 1.28 µM) | MIC ([3]; Streptococcus pneumoniae, read-out: MICs in strains with three or four QRDR mutations, 20 strains, bound holds in all 20 (ciprofloxacin, levofloxacin, sparfloxacin), 19 (grepafloxacin), 10 (trovafloxacin), 18 (gemifloxacin)): < 0.5 µg/mL | MIC ([3]; Streptococcus pneumoniae, read-out: MICs in strains with three or four QRDR mutations, 21 strains, bound holds in all 21 (ciprofloxacin, levofloxacin, sparfloxacin), 20 (grepafloxacin), 11 (trovafloxacin), 19 (gemifloxacin)): ≤ 0.5 µg/mL | MIC ([3]; Streptococcus pneumoniae, strain 2, ParC S79-Y, ParE I460-V, GyrA None, GyrB None): 0.06 µg/mL (≈ 0.154 µM) | MIC ([3]; Streptococcus pneumoniae, strain 3, ParC D83-N, ParE I460-V, GyrA S81-F, GyrB None): 0.06 µg/mL (≈ 0.154 µM) | MIC ([3]; Streptococcus pneumoniae, strain 3, ParC D83-N, ParE I460-V, GyrA S83-F, GyrB None): 0.06 µg/mL (≈ 0.154 µM) | MIC ([3]; Streptococcus pneumoniae, strain 4, ParC S79-F, ParE I460-V, GyrA S81-F, GyrB None): 0.06 µg/mL (≈ 0.154 µM) | MIC ([3]; Streptococcus pneumoniae, strain 4, ParC S79-F, ParE I460-V, GyrA S83-F, GyrB None): 0.06 µg/mL (≈ 0.154 µM) | MIC ([3]; Streptococcus pneumoniae, strain 5, ParC R95-C, ParE D435-N, GyrA S81-F, GyrB None): 0.125 µg/mL (≈ 0.321 µM) | MIC ([3]; Streptococcus pneumoniae, strain 5, ParC R95-C, ParE D435-N, GyrA S83-F, GyrB None): 0.125 µg/mL (≈ 0.321 µM) | MIC ([3]; Streptococcus pneumoniae, strain 6, ParC S79-Y, ParE I460-V, GyrA E85-K, GyrB None): 0.125 µg/mL (≈ 0.321 µM) | MIC ([3]; Streptococcus pneumoniae, strain 6, ParC S79-Y, ParE I460-V, GyrA E87-K, GyrB None): 0.125 µg/mL (≈ 0.321 µM) | MIC ([3]; Streptococcus pneumoniae, strain 7, ParC None, ParE I460-V, GyrA None, GyrB None): 0.125 µg/mL (≈ 0.321 µM) | MIC ([3]; Streptococcus pneumoniae, strain 8, ParC S79-Y, ParE None, GyrA None, GyrB None): 0.125 µg/mL (≈ 0.321 µM) | MIC ([3]; Streptococcus pneumoniae, strain 9, ParC S79-Y, ParE None, GyrA None, GyrB None): 0.125 µg/mL (≈ 0.321 µM) | MIC ([3]; Streptococcus pneumoniae, strain 10, ParC S79-F, ParE I460-V, GyrA S81-C, GyrB None): 0.125 µg/mL (≈ 0.321 µM) | MIC ([3]; Streptococcus pneumoniae, strain 10, ParC S79-F, ParE I460-V, GyrA S83-C, GyrB None): 0.125 µg/mL (≈ 0.321 µM) | MIC ([3]; Streptococcus pneumoniae, strain 11, ParC S79-F, ParE I460-V, GyrA S81-F, GyrB None): 0.125 µg/mL (≈ 0.321 µM) | MIC ([3]; Streptococcus pneumoniae, strain 11, ParC S79-F, ParE I460-V, GyrA S83-F, GyrB None): 0.125 µg/mL (≈ 0.321 µM) | MIC ([3]; Streptococcus pneumoniae, strain 12, ParC S79-F, ParE I460-V, GyrA None, GyrB D435-N): 0.125 µg/mL (≈ 0.321 µM) | MIC ([3]; Streptococcus pneumoniae, strain 27, ParC S79-Y, ParE I460-V, GyrA S81-F, GyrB None): 1 µg/mL (≈ 2.57 µM) | MIC ([3]; Streptococcus pneumoniae, strain 27, ParC S79-Y, ParE I460-V, GyrA S83-F, GyrB None): 1 µg/mL (≈ 2.57 µM) | MIC ([3]; Streptococcus pneumoniae, strain 28, ParC D83-G N91-D, ParE None, GyrA S81-F S114-G, GyrB None): 1 µg/mL (≈ 2.57 µM) | MIC ([3]; Streptococcus pneumoniae, strain 28, ParC cell empty, ParE None, GyrA S83-F and S116-G, GyrB None): 1 µg/mL (≈ 2.57 µM) | MIC Range ([3]; agar dilution, 28 strains with ciprofloxacin MICs ≧8.0 μg/ml): 0.03 to 1.0 µg/mL | MIC (pneumococcal strains; broth MIC, quinolone resistant PAE strain, read-out: MIC against the quinolone resistant strain tested for PAE): 0.25 µg/mL (≈ 0.642 µM) | MIC (pneumococcal strains; strain 1 (S) penicillin susceptible, read-out: Microdilution MIC): 0.016 µg/mL (≈ 0.0411 µM) | MIC (pneumococcal strains; strain 2 (S) penicillin susceptible, read-out: Microdilution MIC): 0.016 µg/mL (≈ 0.0411 µM) | MIC (pneumococcal strains; strain 3 (S) penicillin susceptible, quinolone-resistant, read-out: Microdilution MIC): 0.5 µg/mL (≈ 1.28 µM) | MIC (pneumococcal strains; strain 4 (S) penicillin susceptible, quinolone-resistant, read-out: Microdilution MIC): 0.25 µg/mL (≈ 0.642 µM) | MIC (pneumococcal strains; strain 5 (I) penicillin intermediate, read-out: Microdilution MIC): 0.03 µg/mL (≈ 0.077 µM) | MIC (pneumococcal strains; strain 6 (I) penicillin intermediate, read-out: Microdilution MIC): 0.016 µg/mL (≈ 0.0411 µM) | MIC (pneumococcal strains; strain 7 (I) penicillin intermediate, read-out: Microdilution MIC): 0.016 µg/mL (≈ 0.0411 µM) | MIC (pneumococcal strains; strain 8 (I) penicillin intermediate, read-out: Microdilution MIC): 0.016 µg/mL (≈ 0.0411 µM) | MIC (pneumococcal strains; strain 9 (R) penicillin resistant, read-out: Microdilution MIC): 0.03 µg/mL (≈ 0.077 µM) | MIC (pneumococcal strains; strain 10 (I), read-out: Microdilution MIC): 0.016 µg/mL (≈ 0.0411 µM) | MIC (pneumococcal strains; strain 11 (R) penicillin resistant, read-out: Microdilution MIC): 0.016 µg/mL (≈ 0.0411 µM) | MIC (pneumococcal strains; strain 12 (R) penicillin resistant, read-out: Microdilution MIC): 0.03 µg/mL (≈ 0.077 µM)
